Laboratory results published in article PMC10391610, “Survivin prevents the polycomb repressor complex 2 from methylating histone 3 lysine 27” (iScience, 2023).

Columns and labels:
survivin transcription = test system: survivin transcription; set-up: method as in PMID 17804712; details: cited from earlier work
[1] = test system: XIAP, cIAP2, Bcl-XL, Bcl-2, Bad, p53, cIAP1, STAT3; set-up: method as in 2 sources, ref 22 = [22]; PMID 17804712; doi:10.1158/0008-5472.CAN-07-1343; 22 Nakahara T. Kita A. Yamanaka K. Mori M. Amino N. Takeuchi M. Tominaga F. Hatakeyama S. Kinoyama I. Matsuhisa A. YM155, a novel small-molecule survivin suppressant, induces regression of established ||| ref 23 = [23]; PMID 18927289; doi:10.1158/1078-0432.CCR-08-0468; 23 Iwasa T. Okamoto I. Suzuki M. Nakahara T. Yamanaka K. Hatashita E. Yamada Y. Fukuoka M. Ono K. Nakagawa K. Radiosensitizing effect of YM155, a novel small-molecule survivin suppressant, in non-smal; details: cited from earlier work
[2] = test system: H3K27me3 / H3K27ac peaks in CD4+ T cells; test: ChIP-seq of H3K27me3 and H3K27ac after YM155 treatment; type: cell-based, human
Method: (§1) Human peripheral blood mononuclear cells were isolated from venous peripheral blood by density gradient separation on Lymphoprep (Axis-Shield PoC As, Dundee, Scotland). CD4^+ cells were isolated by positive selection (Invitrogen, 11331D), and cultured (1.25×10^6 cells/ml) in wells coated with anti-CD3 antibody (0.5 mg/ml; OKT3, Sigma-Aldrich, Saint Luis, Missouri, USA), in RPMI medium supplemented with 50 μM β-mercaptoethanol (Gibco, Waltham, Massachusetts, USA), Glutamax 2 mM (Gibco), Gentamicin 50 μg/ml (Sanofi-Aventis, Paris, France) and 10% fetal bovine serum (Sigma-Aldrich) at 37°C in a humidified 5% CO2 atmosphere. Cells were treated with survivin inhibitors serpantronium bromide, YM155[22] (YM155, Selleck Chemicals, Houston, TX), as indicated. The cells were stimulated with recombinant IFNg (50 ng/ml; Peprotech, Cranbury, NJ, USA) during the last 2 h and harversted for RNA-seq. Supernatants were used to measure cytokine levels.
For ChIP-seq analysis, CD4^+ cells isolated from 12 women were stimulated with concanavalin A (ConA, 0.625 μg/ml, Sigma-Aldrich), and lipopolysaccharide (LPS) (5 μg/ml, Sigma-Aldrich) for 72 h and pooled in 4 independent samples for DNA purification. After shearing and pre-clearing of chromatin, 1% of the sample was saved as an input. The pre-cleared chromatin was incubated with 2 μg anti-Survivin (10811, Santa Cruz Biotechnology). For ChIPseq targeting histone modifications CD4^+ cells from 3 healthy women were stimulated with concanavalin A and LPS and treated with sepantronium bromide, YM155, 0 or 10 ng/ml, for 24 h. The chromatin was pre-cleared on the beads coated with Sepharose A and incubated with anti-H3K27ac (C15410196, Diagenode), or anti-H3K27me3 (C15410195, Diagenode). The cells were cross-linked and lysed with the EpiTect ChIP OneDay kit (Qiagen), as recommended by the manufacturer. After sonication to shear the chromatin, cellular debris was removed by pelleting. After pre-clearing, 1% of the sample was saved as an input fraction and used as background for nonspecific chromatin binding. Pre-cleared chromatin was incubated with 2 μg of anti-survivin (10811, Santa Cruz Biotechnology, Santa Cruz, CA, USA). The immune complexes were washed, the cross-links were reversed, and the DNA was purified with the EpiTect ChIP OneDay kit (Qiagen) as recommended by the manufacturer. The quality of purified DNA was assessed with TapeStation (Agilent, Santa Clara, CA, USA). DNA libraries were prepared with ThruPLEX (Rubicon) and sequenced with a Hiseq2000 sequencing system (Illumina) according to the manufacturer’s protocols. Bcl-files were converted and demultiplexed to fastq with bcl2fastq (Illumina).
The fastq sequencing files were mapped to the human reference genome (hg38) using the STAR aligner[58] with default parameters apart from setting the alignIntronMax flag to 1 for end-to-end mapping. Quality control of the sequenced material was performed by FastQC tool using MultiQC v.0.9dev0 (Babraham Institute, Cambridge, U.K.). Peak calling was performed using the default parameters. Peaks were identified for enrichment of the immunoprecipitation fraction against input (adjusted p < 10^−5) and annotated by HOMER software[59] in standard mode to closest transcription start site (TSS). Peaks with overlapping localization by at least 1 nucleotide in several samples were merged and further on referred to as one peak. […]

[3] = test system: gene expression in CD4+ cells; test: RNA-seq after YM155 treatment; type: cell-based, human
Method: as §1
RNA from the CD4^+ cell cultures was prepared using the Norgen Total micro mRNA kit (Norgen, Ontario, Canada). Quality control was done by Bioanalyzer RNA6000 Pico on Agilent2100 (Agilent, Santa Clara, CA, USA). Deep sequencing was done by RNAseq (Hiseq2000, Illumina) at the Science for Life Laboratory, Huddinge, Sweden. Raw sequence data were obtained in Bcl-files and converted into fastq text format using the bcl2fastq program from Illumina.
Mapping of transcripts was done using Genome UCSC annotation set for hg38 human genome assembly. Analysis was performed using the core Bioconductor packages in R-studio v.3.6.3. Differentially expressed genes in CD4^+ cells treated with YM155 were identified using DESeq2 (v.1.26.0) with Benjamini-Hochberg adjustment for multiple testing.
Supplementary file mmc2.xlsx: Table S1. Differentially expressed protein coding genes connected to the changeable H3K27me3 peaks in CD4^+ T cells, related to Figure 1 CD4^+ T cells (n=4) were cultured with survivin inhibitor YM155 (0 and 10 ng/ml). Expression was analyzed by RNA-seq and compared by paired DESeq2 test.

For `COCCn1c2c([n+](Cc3cnccn3)c1C)C(=O)c1ccccc1C2=O` [YM155, sepantronium bromide], which “effect on survivin transcription (in words)” value (survivin transcription) is on record?
Its value is “specifically inhibits survivin transcription”.

What about the “effect on expression of XIAP, cIAP2, Bcl-XL, Bcl-2, Bad (in words)” value [1] of the same compound?
The value was “does not change the expression”.

What about the “effect on expression of p53, cIAP1, STAT3 (in words)” value [1] of the same compound?
The value was “does not change the expression”.

And the “H3K27 acetylation after survivin inhibition (in words)” value ([2]; CD4+ T cells, YM155 10 ng/ml, 24 h)?
Its value is “virtually unaffected”.

And the “proportion of H3K27me3 peaks with increased H3K27me3 deposition” value ([2]; CD4+ T cells, YM155 10 ng/ml, 24 h, ConA/LPS stimulated)?
Its value is 85%.

And the “increase in tag counts, middle H3K27me3 peak (first)” value ([2]; HOX-B cluster, chromosome 17)?
Its value is 51%.

What about the “increase in tag counts, middle H3K27me3 peak (second)” value ([2]; HOX-B cluster, chromosome 17) of the same compound?
Its value is 69%.

What about the “number of H3K27me3 peaks that increased the count by 30%” value ([2]; YM155-treated CD4+ cell cultures) of the same compound?
Its value is 7413.

And the “caudal HOX-B gene expression (in words)” value ([3]; HOX-B8, -B9, and -B13, YM155, CD4+ cells)?
Its value is “a change of the HOX-B genes, which was clearly seen in the caudal HOX-B8, -B9, and -B13 genes”.

What about the “number of genes downregulated (of 157)” value ([3]; genes connected to changed H3K27me3 peaks, YM155-treated CD4+ cells) of the same compound?
The value was 100.

And the “number of protein-coding genes with significantly changed mRNA levels” value ([3]; genes connected to regulatory elements at changed H3K27me3 peaks, nominal p < 0.01, YM155-treated CD4+ cells)?
Its value is 157.
